Laboratory results from patent US20090221441A1, “THREE-DIMENSIONAL CELLULAR ARRAY CHIP AND PLATFORM FOR TOXICOLOGY ASSAYS” (Rensselaer Polytechnic Institute, priority 2005, published 2009).
Like-named read-outs stand apart in the source and are kept apart here.

Key:
MCF7 cells [1] = assay: cells; conditions: Homo sapiens
MCF7 cells [2] = assay: cells; conditions: Homo sapiens; remark: listed apart in the source
human Hep3B cells = assay: in vitro
Protocol: (§1) The cytotoxicity of drugs (or drug metabolites) was determined by staining the slide containing the cells with a Live/Dead test kit (Molecular Probes) that produces a green fluorescent response from living cells. At the end of the 3-day culture period post stamping, the three-dimensional cell chip (DataChip) was rinsed three times in PBS for 5 min each. One mL of a dye solution containing 0.5 μM calcein AM was applied to each three-dimensional cell chip using a glass slide with 1 mm thick perimeter gasket acting as a barrier to prevent loss of the dye solution.
(§2) Following incubation for 50 minutes at room temperature, excess dye in the collagen-gel drops was removed by incubating the slides in a petri dish containing 16 mL of PBS for 30 min on a gyratory shaker at 60 rpm. The three-dimensional cell chip was dried thoroughly with nitrogen. The three-dimensional cell chip was scanned with the GenePix® Professional 4200A scanner equipped with blue laser and standard blue filter to determine the green fluorescent intensity and was quantified from the scanning image using GenePix Pro 6.0 (Molecular Devices Co.).
(§3) Percent live cells=(FReaction/FMax)×100
(§4) where FReaction is the green fluorescence intensity of the reaction spot and FMax is the green fluorescence intensity of untreated fully viable cells.
(§5) For efficient stamping, MTMOS-coated glass slides were prepared to contain a sol-gel barrier on the periphery of the slides.
(§6) To this end […] of methyltrimethoxysilane (MTMOS) sol was prepared by mixing 2 mL of MTMOS with 1 mL of HCl (10 mM) and sonicated for 10 min. The sol was spotted on the periphery of the MTMOS-coated slide and then the slide was baked in an oven for 30 min at 120° C.
(§7) The MetaChip was stored at −80° C. for 1 day prior to use. Cytotoxicity studies were performed by spotting 20 nL of test compound in distilled water (0-2 mM) onto the MetaChip spots and partially dried.
(§8) This was followed by stamping of the three-dimensional cell chip (DataChip) containing either MCF7 or Hep3B cells onto the MetaChip.
(§9) To this end, a MetaChip consisting of 20×54 alginate spots was prepared; each spot containing a single human P450 isoform (CYP1A2, CYP2D6, or CYP3A4), a mixture of the three isoforms, or no P450 as a test compound only control. Addition of test compounds was carried out by overlay spotting of solutions of these compounds onto the MetaChip, which was then stamped on top of the DataChip.
(§10) Using three DataChips in combination with three MetaChips, IC50 values for 27 compounds and their P450-generated metabolites against human Hep3B cells were determined. […] The three P450 isoforms were used along with an equimolar mixture of the three isoforms and a test compound only control without P450. The test compounds were added to the MetaChip, which was then stamped onto the DataChip and incubated for 6 h. This was followed by removing the DataChip, rinsing with growth medium, incubating in media for 3 days, and then stained for cell viability.

[3] = Cytotoxicity of compounds and their P450-generated metabolites, Hep3B DataChip stamped with MetaChip; conditions: human
Protocol: as §1, §2, §3, §4, §5, §6, §7, §8, §9, §10

MCF7 cells [4] = conditions: read-out: IC50, 2D literature values; 2D cultures in 96-well plates, Refs 1-5; cited from earlier work
[5] = test system: MCF7 human breast cancer cells; assay: cells
Protocol: as §1

MCF7 cells [6] = assay: cells; conditions: Homo sapiens, MCF7, read-out: Calculated IC50, Alginate DataChip (MCF7)
Protocol: as §1, §2, §3, §4
(§11) The alginate-containing three-dimensional cell chip (DataChip) was prepared as follows. A poly-L-lysine (PLL)-barium mixture was prepared by mixing equal volume of sterile PLL (0.01 w/v % from Sigma) and barium chloride solution in distilled water (0.1 M from Sigma).
(§12) A suspension of cells in low-viscosity alginate (from Sigma) was prepared by mixing a Hep3B cell suspension in 5% FBS-supplemented DMEM with alginate solution in distilled water so that the final concentration of cells and alginate are 6×10^6 cells/mL and 1% (w/v), respectively.
(§13) Following spotting and drying of 10 nL PLL-barium mixture on the PS-MA-treated slide, 20-nL of the cell suspension (MCF7 or HepB3; cell density of 6×10^6 cells/mL or 120 cells per spot) in alginate was spotted atop each PLL-barium spot.

[7] = test system: Hep3B human hepatoma cells; assay: cells; conditions: read-out: Calculated IC50, Alginate DataChip (Hep3B)
Protocol: as §1, §2, §3, §4, §11, §12, §13

[8] = P450 activity determination with blue fluorogenic substrates in 384-well plate; type: biochemical, human
Protocol: To assess the intrinsic reactivity of P450s in alginate matrices, reactions were performed in wells of a 384-well plate. P450-containing alginate sol was prepared by dispensing 24 μL of P450 baculosomes (1 nmol P450/mL), 36 μL of distilled water, and 60 μL of alginate (2%) in distilled water. Five microliters of this solution were spotted onto 5 μL of the dried PLL-barium spot in a 384-well. Followed by storage of the P450-alginate gel drops at −80° C. for 1 day, 25 μL of blue fluorogenic substrates (BOMCC for CYP3A4 and EOMCC for CYP1A2 and CYP2D6) containing 250 μM NADP^+ and its regeneration system (8 mM glucose-6-phosphate and 1 U/mL glucose-6-phosphate dehydrogenase) in 50 mM potassium phosphate buffer (pH 8) were dispensed onto the thawed P450-alginate gel drop.
As a control, soluble P450 without alginate was also used. The blue fluorescent 7-hydroxycoumarin released by P450-catalyzed oxidation of BOMCC or EOMCC was monitored as a function of time using a BioAssay Reader HTS 7000 Plus (Perkin Elmer, Norwalk, Conn.) at an excitation wavelength of 430 nm and emission wavelength of 497 nm.

[9] = MCF7, read-out: Calculated IC50, 3D 96-well plate
[10] = MCF7, read-out: IC50 from 3D control
[11] = MCF7, read-out: Calculated IC50, 2D 96-well plate
[12] = MCF7, read-out: IC50 from 2D control in the 96-well plate
[13] = IC50, CYP1A2, Hep3B DataChip, MetaChip spots with CYP1A2
[14] = IC50, CYP2D6, Hep3B DataChip, MetaChip spots with CYP2D6
[15] = IC50, CYP3A4, Hep3B DataChip, MetaChip spots with CYP3A4
[16] = IC50, Mixture, Hep3B DataChip, equimolar mixture of CYP1A2, CYP2D6, CYP3A4
[17] = IC50, No P450, Hep3B DataChip, test compound only control without P450
[18] = MCF7, read-out: Calculated IC50, Collagen DataChip (MCF7)
[19] = MCF7, read-out: IC50 evaluated on the DataChip
[20] = Soluble enzyme (control, in solution)

IC50 (MCF7 cells [1]; [9]) [µM]	IC50 (MCF7 cells [1]; [10]) [µM]	IC50 (MCF7 cells [2]; [11]) [µM]	IC50 (MCF7 cells [2]; [12]) [µM]	IC50 [5, 18] [µM]	IC50 [5, 19] [µM]	IC50 (MCF7 cells [6]) [µM]	IC50 [7] [µM]	Molecule	IC50 at 6 h [3, 13] [µM]	IC50 at 6 h [3, 14] [µM]	IC50 at 6 h [3, 15] [µM]	IC50 at 6 h [3, 16] [µM]	IC50 at 6 h [3, 17] [µM]	IC50 (MCF7 cells [4]) [µM]	Km ([8]; In Alginate) [µM]	kcat ([8]; In Alginate) [s⁻¹]	Km [8, 20] [µM]	kcat [8, 20] [s⁻¹]	also measured
49 ± 3	34.7 ± 1.2	68.9 ± 13.5	41.7 ± 4.6	82.4 ± 10.3	51.5 ± 3.3	84.6 ± 18.7	66.1 ± 8.8	O=c1[nH]cc(F)c(=O)[nH]1 [5-Fluorouracil, 5-fluorouracil]	218 ± 44.3	132 ± 20.7	349 ± 72.3	436 ± 77	196 ± 27.2	4.1 to 30	–	–	–	–	Activation or deactivation of the toxic response by CYP3A4 (human Hep3B cells): deactivated
0.23 ± 0.02	69.2 ± 3	0.06 ± 0.01	0.0647 ± 0.0044	0.43 ± 0.09	0.869 ± 0.057	0.19 ± 0.08	0.29 ± 0.09	COc1cccc2c1C(=O)c1c(O)c3c(c(O)c1C2=O)C[C@@](O)(C(=O)CO)C[C@@H]3O[C@H]1C[C@H](N)[C@H](O)[C@H](C)O1 [Doxorubicin, doxorubicin]	1.01 ± 0.22	4.94 ± 1.36	19.3 ± 5.45	9.71 ± 2.22	0.69 ± 0.01	0.01 to 55	–	–	–	–	Activation or deactivation of the toxic response by CYP2D6 (human Hep3B cells): activated; IC50 at 6 h ([3]; IC50 values, Hep3B DataChip): < 1 µM
–	–	–	–	–	–	–	–	CYP1A2: human P450 isoform (baculosomes), soluble or encapsulated in alginate; assayed with EOMCC (protein, UniProt P05177 2-516, looked up) Cytochrome P450 1A2: ALSQSVPFSATELLLASAIFCLVFWVLKGLRPRVPKGLKSPPEPWGWPLLGHVLTLGKNPHLALSRMSQRYGDVLQIRIGSTPVLVLSRLDTIRQALVRQGDDFKGRPDLYTSTLITDGQSLTFSTDSGPVWAARRRLAQNALNTFSIASDPASSSSCYLEEHVSKEAKALISRLQELMAGPGHFDPYNQVVVSVANVIGAMCFGQHFPESSDEMLSLVKNTHEFVETASSGNPLDFFPILRYLPNPALQRFKAFNQRFLWFLQKTVQEHYQDFDKNSVRDITGALFKHSKKGPRASGNLIPQEKIVNLVNDIFGAGFDTVTTAISWSLMYLVTKPEIQRKIQKELDTVIGRERRPRLSDRPQLPYLEAFILETFRHSSFLPFTIPHSTTRDTTLNGFYIPKKCCVFVNQWQVNHDPELWEDPSEFRPERFLTADGTAINKPLSEKMMLFGMGKRRCIGEVLAKWEIFLFLAILLQQLEFSVPPGVKVDLTPIYGLTMKHARCEHVQARLRFSIN	–	–	–	–	–	–	3.61 ± 0.43	0.0085 ± 0.00517	5.78 ± 0.8	0.0225 ± 0.0013	–
–	–	–	–	–	–	–	–	CYP2D6: human P450 isoform (baculosomes), soluble or encapsulated in alginate; assayed with EOMCC (protein, UniProt P10635 1-497, looked up) Cytochrome P450 2D6: MGLEALVPLAVIVAIFLLLVDLMHRRQRWAARYPPGPLPLPGLGNLLHVDFQNTPYCFDQLRRRFGDVFSLQLAWTPVVVLNGLAAVREALVTHGEDTADRPPVPITQILGFGPRSQGVFLARYGPAWREQRRFSVSTLRNLGLGKKSLEQWVTEEAACLCAAFANHSGRPFRPNGLLDKAVSNVIASLTCGRRFEYDDPRFLRLLDLAQEGLKEESGFLREVLNAVPVLLHIPALAGKVLRFQKAFLTQLDELLTEHRMTWDPAQPPRDLTEAFLAEMEKAKGNPESSFNDENLRIVVADLFSAGMVTTSTTLAWGLLLMILHPDVQRRVQQEIDDVIGQVRRPEMGDQAHMPYTTAVIHEVQRFGDIVPLGVTHMTSRDIEVQGFRIPKGTTLITNLSSVLKDEAVWEKPFRFHPEHFLDAQGHFVKPEAFLPFSAGRRACLGEPLARMELFLFFTSLLQHFSFSVPTGQPRPSHHGVFAFLVSPSPYELCAVPR	–	–	–	–	–	–	6.37 ± 1.25	0.0012 ± 0.00017	12.5 ± 4.64	0.002 ± 0.0005	–
